Among the data in patent publication EP1832576A1, “4-Biarylyl-1-phenolyzetidin-2-ones” (Microbia Inc., priority 2003, dated 2005) are inhibition values, retold here.

One assay deals with cholesterol absorption from the intestine. The assay can be described thus: In Vivo Assay of Hypolipidemic Agents using the Rat Cholesterol Absorption Model. Further details: species or system Female Sprague-Dawley rats. Particulars: po, Table 1, footnote 1, perorally, 10 mg/kg, 3H levels in serum three hours after 3H-cholesterol. How it is done:
In Vivo Assay of Hypolipidemic Agents using the Rat Cholesterol Absorption Model. This model is based on models described by Burnett et al (2002), Bioorg. Med. Chem. Lett. 2002 Feb 11;12(3):315-8 and J. Lipid Res. 1999 Oct;40(10):1747-57. Female Sprague-Dawley rats weighing 150-250g are separated into […] and fasted overnight. The animals (4-6/group) are dosed perorally with 300µL test compounds in olive oil or suitable vehicle. Thirty minutes later, 3-5 microCuries ^3H-cholesterol per rat are delivered perorally in 300 µL olive oil. After three hours, 200 µL serum is collected, vortexed with scintillation fluid, and measured for radioactivity in a scintillation counter. Percent inhibition is defined as 100*(1-Ctest/Cctrl), where Ctest and Cctrl refer to ^3H levels in serum for the test compound and for the vehicle only control, respectively. Percent inhibition values are reported for a fixed dose. The ED50 is the dose at which the half-maximal effect on serum ^3H levels is observed for a given test compound.
Representative compounds of the invention were tested in the Rat Cholesterol Absorption model above.
For orientation: inhibition means how much of the control response was suppressed. Read a high inhibition as a strong effect. The compound `CC(=O)Nc1cccc(-c2ccc([C@@H]3[C@@H](CC[C@H](O)c4ccc(F)cc4)C(=O)N3c3ccc(F)cc3)cc2)c1` [Example 26, N-(4'-{(2S,3R)-1-(4-fluorophenyl)-3-[(3S)-3-(4-fluorophenyl)-3-hydroxypropyl]-4-oxoazetidin-2-yl}biphenyl-3-yl)acetamide] gave an inhibition at 10 mg/kg of 76%.

The same assay, now with this note: po, Table 1, footnote 2, perorally, 3 mg/kg, 3H levels in serum three hours after 3H-cholesterol.
In the case of `CS(=O)(=O)c1cccc(-c2ccc([C@@H]3[C@@H](CC[C@H](O)c4ccc(F)cc4)C(=O)N3c3ccc(F)cc3)cc2)c1` [Example 10, (3R,4S)-1-(4-fluorophenyl)-3-[(3S)-3-(4-fluorophenyl)-3-hydroxypropyl]-4-[3'-(methylsulfonyl)biphenyl-4-yl]azetidin-2-one], 3 mg/kg produced 54% inhibition.

The assay is the same for the next values; noted with them: po, Table 1, perorally, 1 mg/kg, 3H levels in serum three hours after 3H-cholesterol, versus vehicle only control.
With `O=C(O)c1ccc(-c2ccc([C@@H]3[C@@H](CC[C@H](O)c4ccc(F)cc4)C(=O)N3c3ccc(F)cc3)cc2)cc1` [Example 22, 4'-{(2S,3R)-1-(4-fluorophenyl)3-[(3S)-3-(4-fluorophenyl)-3-hydroxypropyl]-4-oxoazetidin-2-yl]biphenyl-4-carboxylic acid], the inhibition at 1 mg/kg came out at 52%.
`O=C1[C@H](CC[C@H](O)c2ccc(F)cc2)[C@@H](c2ccc(-c3cccc(O)c3)cc2)N1c1ccc(F)cc1` [Example 4, (3R,4S)-1-(4-Fluorophenyl)-3-[(3S)-3-(4-fluorophenyl)-3-hydroxypropyl]-4-(3'-hydroxybiphenyl-4-yl)azetidin-2-one] gave an inhibition at 1 mg/kg of 72%.
Still for that read-out and setting: the value for `O=C1[C@H](CC[C@H](O)c2ccc(F)cc2)[C@@H](c2ccc(-c3cccc(P(=O)(O)O)c3)cc2)N1c1ccccc1` [Example 56, (4'-{(2S,3R)-3-[(3S)-3-(4-Fluorophenyl)-3-hydroxypropyl]-4-oxo-1-phenylazetidin-2-yl}biphenyl-3-yl)phosphonic acid] was 59%; that for `O=C1[C@H](CC[C@H](O)c2ccc(F)cc2)[C@@H](c2ccc(-c3cccc(S(=O)(=O)O)c3)cc2)N1c1ccc(F)cc1` [Example 118, 4'-{(2S,3R)-1-(4-fluorophenyl)-3-[(3S)-3-(4-fluorophenyl)-3-hydroxypropyl]-4-oxoazetidin-2-yl}biphenyl-3-sulfonic acid] was 61%; that for `Nc1cccc(-c2ccc([C@@H]3[C@@H](CC[C@H](O)c4ccc(F)cc4)C(=O)N3c3ccc(F)cc3)cc2)c1` [Example 86, (3R,4S)-4-(3'-aminabiphenyl-4-yl)-1-(4-fluorophenyl)-3-[(3S)-3-(4-fluorophenyl)-3-hydroxypropyl]azetidin-2-one] was 35%.
Compound `COc1cc(OC)cc(-c2ccc([C@@H]3[C@@H](CC[C@H](O)c4ccc(F)cc4)C(=O)N3c3ccc(F)cc3)cc2)c1` [Example 107, (3R,4S)-4-(3',5'-dimethoxybiphenyl-4-yl)-1-(4-fluorophenyl)-3-[(3S)-3-(4-fluorophenyl)-3-hydroxypropyl]azetidin-2-one] showed an inhibition at 1 mg/kg of 49%.
`O=C1[C@H](CC[C@H](O)c2ccc(F)cc2)[C@@H](c2ccc(-c3cccc(OC[C@@H](O)[C@@H](O)[C@H](O)[C@@H](O)CO)c3)cc2)N1c1ccc(F)cc1` [Example 78, 6-O-(4'-{(2S,3R)-1-(4-Fluorophenyl)-3-[(3S)-3-(4-fluorophenyl)-3-hydroxypropyl]-4-oxoazetidin-2-yl}biphenyl-3-yl)-D-glucitol]: the inhibition at 1 mg/kg stood at 51%.
On the same count and under the same terms, the value for `O=C(O)[C@@H]1O[C@H](Oc2cccc(-c3ccc([C@@H]4[C@@H](CC[C@H](O)c5ccc(F)cc5)C(=O)N4c4ccc(F)cc4)cc3)c2)[C@@H](O)[C@H](O)[C@H]1O` [Example 20, 4'-{(2S,3R)-1-(4-fluorophenyl)-3-[(3S)-3-(4-fluorophenyl)-3-hydroxypropyl]-4-oxoazetidin-2-yl}biphenyl-3-yl β-L-glucopyranosiduronic acid] was 59%.
Same read-out and setting: in the case of `O=C(O)c1cc(-c2ccc([C@@H]3[C@@H](CC[C@H](O)c4ccc(F)cc4)C(=O)N3c3ccc(F)cc3)cc2)ccc1O` [Example 106, 4'-{(2S,3R)-1-(4-fluorophenyl)-3-[(3S)-3-(4-fluorophenyl)-3-hydroxypropyl]-4-oxoazetidin-2-yl}-4-hydroxybiphenyl-3-carboxylic acid] it was 66%.
Same read-out and setting: the value for `O=C1[C@H](CC[C@H](O)c2ccc(F)cc2)[C@@H](c2ccc(-c3cc(O)ccc3Br)cc2)N1c1ccc(F)cc1` [Example 19, (3R,4S)-4-(2'-bromo-5'-hydroxybiphenyl-4-yl)-1-(4-fluorophenyl)-3-[(3S)-3-(4-fluorophenyl)-3-hydroxypropyl]azetidin-2-one] was 66%.
Compound `O=C1[C@H](CC[C@H](O)c2ccc(F)cc2)[C@@H](c2ccc(-c3ccccc3O)cc2)N1c1ccc(F)cc1` [Example 7, (3R,4S)-1-(4-fluorophenyl)-3-[(3S)-3-(4-fluorophenyl)-3-hydroxypropyl]-4-(2'-hydroxybiphenyl-4-yl)azetidin-2-one] yielded an inhibition at 1 mg/kg of 30%.
Same read-out and setting: the value for `Nc1ccc(-c2ccc([C@@H]3[C@@H](CC[C@H](O)c4ccc(F)cc4)C(=O)N3c3ccc(F)cc3)cc2)cc1` [Example 28, (3R,4S)-1-(4-fluorophenyl)-3-[(3S)-3-(4-fluorophenyl)-3-hydroxypropyl]-4-(4'-aminobiphenyl-4-yl)azetidin-2-one] was 56%; that for `Cc1cc(-c2ccc([C@@H]3[C@@H](CC[C@H](O)c4ccc(F)cc4)C(=O)N3c3ccc(F)cc3)cc2)ccc1F` [Example 94, (3R,4S)-4-(4'-fluoro-3'-methylbiphenyl-4-yl)-1-(4-fluorophenyl)-3-[(3S)-3-(4-fluorophenyl)-3-hydroxypropyl]azetidin-2-one] was 30%; that for `O=C(O)c1cccc(-c2ccc([C@@H]3[C@@H](CC[C@H](O)c4ccc(F)cc4)C(=O)N3c3ccc(F)cc3)cc2)c1` [Example 21, 4'-{(2S,3R)-1-(4-fluorophenyl)3-[(3S)-3-(4-fluorophenyl)-3-hydroxypropyl]-4-oxoazetidin-2-yl]biphenyl-3-carboxylic acid] was 68%.
Still for that read-out and setting: the value for `CCCCOc1cccc(-c2ccc([C@@H]3[C@@H](CC[C@H](O)c4ccc(F)cc4)C(=O)N3c3ccc(F)cc3)cc2)c1` [Example 109, (3R,4S)-4-(3'-butoxybiphenyl-4-yl)-1-(4-fluorophenyl)-3-[(3S)-3-(4-fluorophenyl)-3-hydroxypropyl]azetidin-2-one] was 52%; that for `CSc1cccc(-c2ccc([C@@H]3[C@@H](CC[C@H](O)c4ccc(F)cc4)C(=O)N3c3ccc(F)cc3)cc2)c1` [Example 82, (3R,4S)-1-(4-fluorophenyl)-3-[(3S)-3-(4-fluorophenyl)-3-hydroxypropyl]-4-[3'-(methylthio)biphenyl-4-yl]azetidin-2-one] was 28%.
`CO[C@H]1O[C@H](COc2cccc(-c3ccc([C@@H]4[C@@H](CC[C@H](O)c5ccc(F)cc5)C(=O)N4c4ccc(F)cc4)cc3)c2)[C@@H](O)[C@H](O)[C@H]1O` [Example 77, methyl 6-O-(4'-{(2S,3R)-1-(4-fluorophenyl)-3-[(3S)-3-(4-fluorophenyl)-3-hydroxypropyl]-4-oxoazetidin-2-yl}biphenyl-3-yl)-α-D-glucopyranoside] came in with an inhibition at 1 mg/kg of 70%.

Still in this assay, the particulars now being: po, Table 2, perorally, 1 mg/kg, 3H levels in serum three hours after 3H-cholesterol, versus vehicle only control.
`O=C1[C@H](CC[C@H](O)c2ccc(F)cc2)[C@@H](c2ccc(-c3cccc([C@H](O)[C@@H](O)[C@@H](O)[C@H](O)[C@@H](O)CO)c3)cc2O)N1c1ccccc1` [Example 75, (6S)-6-C-(4'-{(2S,3R)-3-[(3S)-3-(4-Fluorophenyl)-3-hydroxypropyl]-4-oxo-1-phenylazetidin-2-yl}-3'-hydroxybiphenyl-3-yl)-D-glucitol] displayed an inhibition at 1 mg/kg of 68%.
`O=C1[C@H](CC[C@H](O)c2ccc(F)cc2)[C@@H](c2ccc(-c3ccc(S(=O)(=O)O)cc3)cc2O)N1c1ccccc1` [Example 128, Sodium 4'-{(2S,3R)-3-[(3S)-3-(4-fluorophenyl)-3-hydroxypropyl]-4-oxo-1-phenylazetidin-2-yl}-3'-hydroxybiphenyl-4-sulfonate]: the inhibition at 1 mg/kg amounted to 60%.
`O=C1[C@H](CC[C@H](O)c2ccc(F)cc2)[C@@H](c2ccc(-c3cccc(O)c3)cc2O)N1c1ccc(F)cc1` [Example 121, (3R,4S)-4-(3,3'-dihydroxybiphenyl-4-yl)-1-(4-fluorophenyl)-3-[(3S)-3-(4-fluorophenyl)-3-hydroxypropyl]azetidin-2-one] gave an inhibition at 1 mg/kg of 72%.
Still for that read-out and setting: in the case of `CS(=O)(=O)c1cccc(-c2ccc([C@@H]3[C@@H](CC[C@H](O)c4ccc(F)cc4)C(=O)N3c3ccccc3)c(O)c2)c1` [Example 123, (3R,4S)-3-[(3S)-3-(4-fluorophenyl)-3-hydroxypropyl]-4-[3-hydroxy-3'-(methylsulfonyl)biphenyl-4-yl]-1-phenylazetidin-2-one] it was 72%.
Same read-out and setting: in the case of `O=C1C(CCC(O)c2ccc(F)cc2)C(c2cccc(-c3ccc(O)cc3)c2)N1c1ccc(F)cc1` (stereo not shown) [Example 46] it was 30%; in that of `O=C1[C@H](CC[C@H](O)c2ccc(F)cc2)[C@@H](c2ccc(-c3ccc(P(=O)(O)O)cc3)cc2O)N1c1ccccc1` [Example 127, (4'-{(2S,3R)-3-[(3S)-3-(4-Fluorophenyl)-3-hydroxypropyl]-4-oxo-1-phenylazetidin-2-yl}-3'-hydroxybiphenyl-4-yl)phosphonic acid], 58%.
